Experimental data: US9642854B2, “Flavanoid compounds and process for preparation thereof” (Council of Scientific & Industrial Research, priority 2009, dated 2017)
≈ marks a conversion by molar mass, not a printed value. Entries after “also recorded” stand apart in the source; their conditions may differ.

Assays:
gastric parietal cell [1] = assay: Histamine-stimulated acid secretion in gastric parietal cell ([14C]-aminopyrine uptake ratio); assay type: cell-based, rabbit; conditions: histamine 0.1 mM
Protocol: Dose-dependent inhibition of histamine-stimulated aminopyrine (AP) uptake ratio in parietal cell suspension after CPP-1 treatment was measured.
(§1) Parietal cells (PC) were isolated from New Zealand White rabbits (weighing ^˜2.5 kg) essentially according to Berglindh (1984) and as modified by Mazzeo et al. (1988). The PC preparations were nearly 90% pure and viable. The effect of CPP-1 on basal and histamine stimulated acid secretion in parietal cells was examined as follows. The PC suspension was incubated for 10 min at 37° C. with gentle stirring and continuous slow top gassing with oxygen. The [^14C]-aminopyrine (115 mCi/mmole) was added to the suspension at […], and incubation was continued for another 10 min. One-milliliter aliquot of PC (^˜5×10^6 cells) was added to various concentrations of CPP-1 in the presence and the absence of histamine (0.1 mM) and incubated for 20 min at 37° C. with slow shaking and oxygen top gassing. At the end of the incubation, the PC suspensions were centrifuged, supernatant carefully aspired off and the pellets solubilized in scintillation fluid containing Triton X-100. The resulting solution was counted in a liquid scintillation counter. The aminopyrine accumulation was determined as the ratio of intra- to extracellular aminopyrine according to Mazzeo et al. (1988).

gastric parietal cell [2] = assay: Basal acid secretion in gastric parietal cell ([14C]-aminopyrine uptake ratio); assay type: cell-based, rabbit
Protocol: Dose-dependent inhibition of aminopyrine (AP) uptake ratio in parietal cell suspension after CPP-1 treatment was measured.
as §1

Swiss albino mice = assay: Acute toxicity evaluation in mice; assay type: in vivo; conditions: up to 0.5 g/kg body weight orally, 15 days observation
Excerpt: Five animals of Swiss albino mice strain were used for this purpose. The dosage up to 0.5 g/kg body weight given orally per mice and the animals were kept for 15 days under observation. It was observed that the mice were not affected at the dose level of 0.5 g/kg body weight of CPP-1.

H. pylori [3] = assay: MIC and MBC by microbroth dilution assay; assay type: cell-based, Helicobacter pylori; conditions: for MBC / MIC: Helicobacter pylori
Protocol: The compounds, serially diluted ([…]) in Muller Hinton broth containing 5% FCS, were incubated in 96-well microtitre plate containing fresh cultures of HP001 (˜5.5×10^6 CFU/mL) or ATCC® 43504 (2.65×10^6 CFU/ml) in a final volume of […]. After 72-h of incubation under microaerophilic condition at 37° C., […] of cultures wherein no growth had been detected were streaked on fresh brain heart infusion agar plates for MBC determination.
In microbroth dilution assay employing one clinical and one standard strain, both the bacteriostatic and the bactericidal values were determined for all four compounds as well as for clarithromycin (Table 4). Two-fold serial dilutions were prepared in 96-well microtitre plate containing a total volume of 0.1 mL Mueller Hinton broth supplemented with 5% FCS. A 3-day old liquid culture was diluted 10 times in Mueller Hinton broth and 0.1 mL of these cultures was inoculated into each well to give a final concentration of ˜10^6 CFU/mL. The plates were incubated for 3 days in a microaerophilic atmosphere at 37° C. Following incubation, the plates were examined visually, and the lowest concentration showing complete inhibition of growth was recorded as the MIC of the respective compound (Hachem et al., 1996). Aliquots (0.1 mL) of 72-h culture in which no growth had been detected were taken from the wells of the above microtitre plates and used to streak on fresh BHI agar plates.

[4] = tested on: H. pylori clinical strain HP001; assay: Acridine orange fluorescence microscopy of morphological transformation; assay type: cell-based, Helicobacter pylori; conditions: 24 h
Protocol: Acridine orange fluorescence microscopic evidence is provided. The details of experimental procedures are provided under Experiment 9.
For the purpose of fluorescence staining, a bacterial smear was prepared, fixed with methanol for 2 min, stained with 0.1% acridine orange solution for 2-3 min, rinsed thoroughly with distilled water (Haqqani, 2001) and observed under fluorescence microscopy using 1-3 filter (emission wavelength 510 nm). The live organism appeared as orange color in the dark background and the non-viable cells as green (Shirai et al., 2000).

H. pylori ATCC 43504 = assay: Transmission electron microscopy of morphological transformation; assay type: cell-based, Helicobacter pylori; conditions: 24 h
Excerpt: The morphological alteration of H. pylori cells (ATCC® 43504) exposed to various concentrations of CPP-1 was further examined using transmission electron microscopy (Dai et al., 2005). […] Samples were dehydrated, embedded in SPUR, sections cut and applied to copper grids. The grids were contrasted with uranyl acetate and lead citrate and the sections were examined on a transmission electron microscope.

H. pylori [5] = assay: Time kill kinetic analyses in biphasic culture; assay type: cell-based, Helicobacter pylori
[6] = ATCC43504, microbroth dilution, ATCC 43504

With `O=c1cc(-c2ccccc2)oc2cc(OCCCCCCN3CCCCC3)cc(O)c12` [CPP-1, 5-Hydroxy-2-phenyl-7-(6-piperidin-1-yl-hexyloxy)-chromen-4-one] the IC50 (gastric parietal cell [1]; Oryctolagus cuniculus, rabbit gastric parietal cell) was ~15 µg/mL, the “activity relative to cimetidine, histamine-stimulated secretion” value (gastric parietal cell [1]) was “more active than cimetidine” and the “fold less potent than omeprazole in inhibiting histamine-stimulated secretion” value (gastric parietal cell [1]) was “about 5 fold”. The IC50 (gastric parietal cell [2]; Oryctolagus cuniculus, rabbit gastric parietal cell, aminopyrine uptake ratio) was ~5 µg/mL, the “fold less potent than omeprazole in inhibiting basal acid secretion” value (gastric parietal cell [2]; parietal cells) was 2-3 fold and the “potency relative to cimetidine, basal acid secretion” value (gastric parietal cell [2]; parietal cells) was “much more potent than cimetidine”. For the same compound, the mortality (Swiss albino mice) was “did not show any mortality; also recorded: No mortality and behavioral abnormality was noted”, the MBC (H. pylori [3]; [6]) was ~6.25 µg/mL (≈ 14.8 µM) and the MIC (H. pylori [3]; [6]) was ~6.25 µg/mL (≈ 14.8 µM). For the same compound, the MBC (H. pylori [3]; microbroth dilution, HP001) was 12.5 µg/mL (≈ 29.7 µM), the MIC (H. pylori [3]; microbroth dilution, HP001) was 6.25 µg/mL (≈ 14.8 µM) and the MBC (H. pylori [3]; range over strains) was 6.25 to 12.5 µg/mL (≈ 14.8 to 29.7 µM). For the same compound, the MIC/MBC dose range (H. pylori [3]; dose range at which irreversible morphological deformation is induced) was 6.25 to 12.5 µg/mL, the “morphological alteration (fluorescence microscopy)” value ([4]; 3.125 mg/mL (so in the source)) was “resembled almost like control with some deformation” and the “morphological alteration (fluorescence microscopy)” value ([4]; 6.25 and […] (so in the source)) was “progressively deteriorating cell population leading to more of non-viable cells (green fluorescence) and coccid formation”. The “morphological alteration (transmission electron microscope)” value (H. pylori ATCC 43504; 6.25 μg/mL) was “only few bacteria with intact shape and structure”, the “morphological alteration (transmission electron micrographs)” value (H. pylori ATCC 43504; 6.25 or […]) was “induced swelling and vacuole like structures in the cytoplasm of H. pylori cells” and the “morphological alteration (transmission electron microscope)” value (H. pylori ATCC 43504; […]) was “most cells were found to be progressively swollen and destroyed”. The “decrease in cell count within 36 h” value (H. pylori [5]; ATCC 43504, 0.5×MIC (3.125 μg/mL)) was “f-log decrease in cell count”, the “time to complete killing” value (H. pylori [5]; ATCC 43504, 1×MIC (6.25 μg/mL)) was ≤ 36 h and the “time at which killing/inhibition became evident” value (H. pylori [5]; HP001, biphasic culture) was ≤ 6 h. The “killing at MIC dose (1×MIC)” value (H. pylori [5]; HP001, up to 36 h) was “not high enough to produce total bactericidal activity”.
